From patent EP0740252A2, “Apparatus, method, and standard curve for measuring clearance” (KUREHA KAGAKU KOGYO KABUSHIKI KAISHA, priority 1995, dated 1996) come the findings set out here.

“And” between values parts separate entries of the source, which are not always exact repeats. Identical values can stand only once.

The nature of data set [1]: Meglumine iothalamate clearance by AUC method, dog. It counts as in vivo, female beagle dogs. Particulars: healthy dog 1919 (two tests at an interval of two months), 3% meglumine iothalamate solution 0.3 mℓ/kg i.v. How it is done: A total of […] female beagle dogs (body weight: 8.5 to 14 kg) consisting of one healthy dog (dog No. 1919), three partially nephrectomized dogs (chronic renal failure model) (dog Nos. 1367, 1253, and 1104) were used.
A 3% inulin-containing iothalamate solution was administered once in the amount of 0.3 mℓ/kg to each beagle dog from its foreleg vein. The meglumine iothalamate in the 3% inulin-containing iothalamate solution was obtained by diluting a conray injection solution (60 W/V%) (meglumine iothalamate injection solution of the Japanese Pharmacopoeia, available from DAIICHI PHARMACEUTICAL CO., LTD.) with saline to adjust the concentration to 3%.
Blood collection operations were performed five times with intervals after the administration. The blood collection times were, e.g., 5 min, 20 min, 40 min, 60 min, and 90 min after the administration for the healthy dog, and, e.g., 5 min, 40 min, 80 min, 120 min, and 180 min after the administration for other dogs.
The concentration of meglumine iothalamate in the plasma was measured as follows. 400 µℓ of a 0.1N-HCl-methanol (1 : 9) solution mixture were added to 100 µℓ of a dog plasma sample, and the resultant solution was stirred well and subjected to centrifugal separation at 16,000 rpm for 10 min. The resultant supernatant was analyzed by liquid chromatography. […]

Data set [2] can be described thus: Meglumine iothalamate clearance from one plasma sample by first standard function, dog. It counts as in vivo, female beagle dogs. Particulars: healthy dog 1919 (two tests), first standard function (Fig. 18), per blood collection time (20-90 min). How it is done:
A first standard function [CL × T - Cp/D curve] was formed following the same procedures as in Example 1. The first clearance calculation program 34 was executed. In this execution, the clearances of the four dogs (two tests were conducted for dog Nos. 1919 and 1367 at an interval of two months) in Example 12 were calculated by the first standard function (Fig. 18) obtained in Example 12, using the data for the respective blood collection times (except for the values obtained 5 min after the administration). More specifically, the ratio values of the meglumine iothalamate concentrations (Cp) in the plasma samples corresponding to the respective blood collection times to the meglumine iothalamate dose (D) were calculated, and the products of the clearance (CL) and the blood collection times (T) were calculated from the first standard function using the ratio values. The products were divided by the blood collection times (T), respectively, thereby obtaining the clearances (CL).

Consider `CNC(=O)c1c(I)c(NC(C)=O)c(I)c(C(=O)O)c1I` [Iothalamic Acid, N-methylglucamine-5-acetamido-2,4,6-triiodo-N-methylisophthalate], for which the clearance in data set [1] (female, beagle, dog, plasma, iv, 0.3 mℓ/kg, read-out: Conventional Method: Clearance (1)) amounted to 45.6 mL/min; in data set [2] (female, beagle, dog, plasma, intravenous, 0.3 mℓ/kg, read-out: Method of Present Invention: Clearance (2)), 52.1 mL/min. The “Conventional Method: Clearance (1)” value in data set [1] was 49.1 mL/min. In addition, the “Method of Present Invention: Clearance (2)” value in data set [2] (blood collected at 20 min) was 57.4 mL/min; in data set [2] (blood collected at 40 min), 53.0 mL/min; in data set [2] (blood collected at 50 min) it was 48.9 mL/min; in data set [2] (blood collected at 60 min), 52.5 mL/min; in data set [2] (blood collected at 70 min), 48.4 mL/min; in data set [2] (blood collected at 90 min) it was 42.0 mL/min and 43.9 mL/min.

Broadly, the clearance is the volume of plasma or blood freed of the substance per unit of time.
